In US11185073B2, “Microbiocidal quinoline (thio)carboxamide derivatives” (SYNGENTA PARTICIPATIONS AG, priority 2017, dated 2021):

Legend:
Fusarium culmorum [1] = assay: microbe, parasite or virus in culture; assay type: cell-based; conditions: 72 h, read-out: control of Fusarium culmorum
[2] = tested on: Glomerella lagenarium (Colletotrichum lagenarium); assay: Glomerella lagenarium (Colletotrichum lagenarium) / liquid culture (anthracnose); assay type: cell-based; conditions: Colletotrichum orbiculare, growth inhibition photometrically 3-4 days after application, compared to untreated control
[3] = tested on: Botryotinia fuckeliana (Botrytis cinerea); assay: Botryotinia fuckeliana (Botrytis cinerea) / liquid culture (gray mould); assay type: cell-based; conditions: 72 h, growth inhibition photometrically 3-4 days after application, compared to untreated control
[4] = tested on: Magnaporthe grisea (Pyricularia oryzae); assay: microbe, parasite or virus in culture; assay type: cell-based; conditions: 72 h, read-out: control of Magnaporthe grisea
Fusarium culmorum [5] = assay: whole plant or invertebrate; assay type: in vivo; conditions: in Triticum aestivum, read-out: control of Fusarium culmorum
[6] = tested on: Monographella nivalis (Microdochium nivale); assay: Monographella nivalis (Microdochium nivale) / liquid culture (foot rot cereals); assay type: cell-based; conditions: 96 h, growth inhibition photometrically 4-5 days after application, compared to untreated control
[7] = tested on: Gibberella zeae (Fusarium graminearum); assay: whole plant or invertebrate; assay type: in vivo; conditions: in Triticum aestivum, read-out: control of Gibberella zeae

Cc1nc2c(F)cccc2cc1C(=O)NC(C)(COC1CCC1)CC(F)(F)F (centres unmarked) [E.009, N-[1-(cyclo-butoxymethyl)-3,3,3-trifluoro-1-methyl-propyl]-8-fluoro-2-methyl-qiuinoline-3-carboxamide]
≥ 80%: inhibition of growth at 20 ppm (Fusarium culmorum [1]) | inhibition of growth at 20 ppm [2] | inhibition of growth at 20 ppm [3] | inhibition of growth at 20 ppm [4]

CC(COC1CCC1)(CC(F)(F)F)NC(=O)c1cnc2c(F)cccc2c1 (centres unmarked) [E.021, N-[1-(cyclobutoxy-methyl)-3,3,3-trifluoro-1-methyl-propyl]-8-fluoro-quinoline-3-carboxamide]
≥ 80%: inhibition of growth at 20 ppm (Fusarium culmorum [1]) | inhibition of growth at 20 ppm [2] | inhibition of growth at 20 ppm [3] | inhibition of growth at 20 ppm [4]

C[C@@](COC1CCC1)(CC(F)(F)F)NC(=O)c1cnc2c(F)cccc2c1 [E.013, N-[(1S)-1-(cyclo-butoxymethyl)-3,3,3-trifluoro-1-methyl-propyl]-8-fluoro-quinoline-3-carboxamide]
≥ 80%: inhibition of growth at 20 ppm (Fusarium culmorum [1]) | pest or weed control at 200 ppm (Fusarium culmorum [5]) | inhibition of growth at 20 ppm [2] | inhibition of growth at 20 ppm [3] | inhibition of growth at 20 ppm [6]

CC1(CC(C)(COCc2ccccc2)NC(=O)c2cnc3c(F)cccc3c2)CC1 (centres unmarked) [E.018, N-[1-(benzyloxy-methyl)-1-methyl-2-(1-methylcyclo-propyl)ethyl]-8-fluoro-quinoline-3-carboxamide]
≥ 80%: inhibition of growth at 20 ppm (Fusarium culmorum [1]) | inhibition of growth at 20 ppm [3] | inhibition of growth at 20 ppm [4] | inhibition of growth at 20 ppm [6]

CC(COc1ccccc1)(CC(F)(F)F)NC(=O)c1cnc2c(F)cccc2c1 (centres unmarked) [E.019, 8-fluoro-N-[3,3,3-trifluoro-1-methyl-1-(phenoxy-methyl)propyl]-quinoline-3-carboxamide]
≥ 80%: inhibition of growth at 20 ppm (Fusarium culmorum [1]) | pest or weed control at 200 ppm (Fusarium culmorum [5]) | inhibition of growth at 20 ppm [2] | inhibition of growth at 20 ppm [3] | inhibition of growth at 20 ppm [4] | pest or weed control at 200 ppm [7] | inhibition of growth at 20 ppm [6]

CC(COC1(C)CCCC1)(CC(F)(F)F)NC(=O)c1cnc2c(F)cccc2c1 (centres unmarked) [E.010]
≥ 80%: inhibition of growth at 20 ppm (Fusarium culmorum [1]) | pest or weed control at 200 ppm (Fusarium culmorum [5]) | inhibition of growth at 20 ppm [2] | inhibition of growth at 20 ppm [3] | pest or weed control at 200 ppm [7] | inhibition of growth at 20 ppm [6]

CCC(CC)OCC(C)(CC(C)C)NC(=O)c1cnc2c(F)cccc2c1 (centres unmarked) [E.022, N-[1-(1-ethyl-propoxymethyl)-1,3-dimethyl-butyl]-8-fluoro-quinoline-3-carboxamide]
≥ 80%: inhibition of growth at 20 ppm (Fusarium culmorum [1]) | pest or weed control at 200 ppm (Fusarium culmorum [5]) | inhibition of growth at 20 ppm [2] | inhibition of growth at 20 ppm [3] | inhibition of growth at 20 ppm [4] | inhibition of growth at 20 ppm [6]

CC(C)CC(C)(COC1CCCC1)NC(=O)c1cnc2c(F)cccc2c1 (centres unmarked) [E.031, N-[1-(cyclopentoxy-methyl)-1,3-dimethyl-butyl]-8-fluoro-quinoline-3-carboxamide]
≥ 80%: inhibition of growth at 20 ppm (Fusarium culmorum [1]) | pest or weed control at 200 ppm (Fusarium culmorum [5]) | inhibition of growth at 20 ppm [2] | inhibition of growth at 20 ppm [3] | inhibition of growth at 20 ppm [4] | inhibition of growth at 20 ppm [6]

C=C(C)COCC(C)(CC(C)C)NC(=O)c1cnc2c(F)cccc2c1 (centres unmarked) [E.020, N-[1,3-dimethyl-1-(2-methylallyloxy-methyl)butyl]-8-fluoro-quinoline-3-carboxamide]
≥ 80%: inhibition of growth at 20 ppm (Fusarium culmorum [1]) | pest or weed control at 200 ppm (Fusarium culmorum [5]) | inhibition of growth at 20 ppm [2] | inhibition of growth at 20 ppm [3] | inhibition of growth at 20 ppm [4] | pest or weed control at 200 ppm [7] | inhibition of growth at 20 ppm [6]

CC(COC1CCCCC1)(CC(F)(F)F)NC(=O)c1cnc2c(F)cccc2c1 (centres unmarked) [E.027, N-[1-(cyclohexoxy-methyl)-3,3,3-trifluoro-1-methyl-propyl]-8-fluoro-quinoline-3-carboxamide]
≥ 80%: inhibition of growth at 20 ppm (Fusarium culmorum [1]) | pest or weed control at 200 ppm (Fusarium culmorum [5]) | inhibition of growth at 20 ppm [2] | inhibition of growth at 20 ppm [3] | inhibition of growth at 20 ppm [4] | pest or weed control at 200 ppm [7] | inhibition of growth at 20 ppm [6]

CC(C)CC(C)(COC1CCC1)NC(=O)c1cnc2c(F)cccc2c1 (centres unmarked) [E.023, N-[1-(cyclo-butoxymethyl)-1,3-dimethyl-butyl]-8-fluoro-quinoline-3-carboxamide]
≥ 80%: inhibition of growth at 20 ppm (Fusarium culmorum [1]) | pest or weed control at 200 ppm (Fusarium culmorum [5]) | inhibition of growth at 20 ppm [2] | inhibition of growth at 20 ppm [3] | inhibition of growth at 20 ppm [4] | pest or weed control at 200 ppm [7] | inhibition of growth at 20 ppm [6]

Cc1c(C(=O)NC(C)(COC2CCC2)CC(F)(F)F)cnc2c(F)cccc12 (centres unmarked) [E.007, N-[1-(cyclo-butoxymethyl)-3,3,3-trifluoro-1-methyl-propyl]-8-fluoro-4-methyl-quinoline-3-carboxamide]
≥ 80%: inhibition of growth at 20 ppm (Fusarium culmorum [1]) | pest or weed control at 200 ppm (Fusarium culmorum [5]) | inhibition of growth at 20 ppm [2] | inhibition of growth at 20 ppm [3] | inhibition of growth at 20 ppm [4] | pest or weed control at 200 ppm [7] | inhibition of growth at 20 ppm [6]

CC(C)CC(C)(COc1ccccc1)NC(=O)c1cnc2c(F)cccc2c1 (centres unmarked) [E.028, N-[1,3-dimethyl-1-(phenoxymethyl)-butyl]-8-fluoro-quinoline-3-carboxamide]
≥ 80%: inhibition of growth at 20 ppm (Fusarium culmorum [1]) | pest or weed control at 200 ppm (Fusarium culmorum [5]) | inhibition of growth at 20 ppm [2] | inhibition of growth at 20 ppm [3] | inhibition of growth at 20 ppm [6]

Cc1cccc2cc(C(=O)NC(C)(COC3CCC3)CC(F)(F)F)cnc12 (centres unmarked) [E.011]
≥ 80%: inhibition of growth at 20 ppm (Fusarium culmorum [1]) | pest or weed control at 200 ppm (Fusarium culmorum [5]) | inhibition of growth at 20 ppm [2] | inhibition of growth at 20 ppm [3] | inhibition of growth at 20 ppm [4] | inhibition of growth at 20 ppm [6]

CC(COC1CCC1)(CC(F)(F)F)NC(=O)c1cnc2c(F)cccc2c1 (stereo in doubt) [E.014, N-[(1S)-1-(cyclo-butoxymethyl)-3,3,3-trifluoro-1-methyl-propyl]-8-fluoro-quinoline-3-carboxamide]
≥ 80%: inhibition of growth at 20 ppm (Fusarium culmorum [1]) | pest or weed control at 200 ppm (Fusarium culmorum [5]) | inhibition of growth at 20 ppm [2] | inhibition of growth at 20 ppm [3] | pest or weed control at 200 ppm [7]

CC(COC1CCC1)(CC(F)(F)F)NC(=O)c1cnc2c(Cl)cccc2c1 (centres unmarked) [E.012, 8-chloro-N-[1-(cyclobutoxymethyl)-3,3,3-trifluoro-1-methyl-propyl]-quinoline-3-carboxamide]
≥ 80%: inhibition of growth at 20 ppm (Fusarium culmorum [1]) | pest or weed control at 200 ppm (Fusarium culmorum [5]) | inhibition of growth at 20 ppm [2] | inhibition of growth at 20 ppm [3] | inhibition of growth at 20 ppm [4] | pest or weed control at 200 ppm [7] | inhibition of growth at 20 ppm [6]

CC(C)(C)CC(C)(COCC1CC1)NC(=O)c1cnc2c(F)cccc2c1 (centres unmarked) [E.006, N-[1-(cyclo-propylmethoxy-methyl)-1,3,3-trimethylbutyl]-8-fluoro-quinoline-3-carboxamide]
≥ 80%: inhibition of growth at 20 ppm (Fusarium culmorum [1]) | pest or weed control at 200 ppm (Fusarium culmorum [5]) | inhibition of growth at 20 ppm [2] | inhibition of growth at 20 ppm [3] | inhibition of growth at 20 ppm [4] | inhibition of growth at 20 ppm [6]

CCCCCCCCC(C)(COC)NC(=O)c1cnc2c(F)cccc2c1 (centres unmarked) [E.033, 8-fluoro-N-[1-(methoxymethyl)-1-methyl-nonyl]-quinoline-3-carboxamide]
≥ 80%: inhibition of growth at 20 ppm (Fusarium culmorum [1]) | inhibition of growth at 20 ppm [2] | inhibition of growth at 20 ppm [3] | pest or weed control at 200 ppm [7] | inhibition of growth at 20 ppm [6]

CC(C)COCC(C)(CC(C)C)NC(=O)c1cnc2c(F)cccc2c1 (centres unmarked) [E.025, 8-fluoro-N-[1-(iso-butoxymethyl)-1,3-dimethyl-butyl]-quinoline-3-carboxamide]
≥ 80%: inhibition of growth at 20 ppm (Fusarium culmorum [1]) | pest or weed control at 200 ppm (Fusarium culmorum [5]) | inhibition of growth at 20 ppm [2] | inhibition of growth at 20 ppm [3] | inhibition of growth at 20 ppm [4] | pest or weed control at 200 ppm [7] | inhibition of growth at 20 ppm [6]

CC(C)CC(C)(COC(C)C)NC(=O)c1cnc2c(F)cccc2c1 (centres unmarked) [E.024, 8-fluoro-N-[1-(iso-propoxymethyl)-1,3-dimethyl-butyl]quinoline-3-carboxamide]
≥ 80%: inhibition of growth at 20 ppm (Fusarium culmorum [1]) | pest or weed control at 200 ppm (Fusarium culmorum [5]) | inhibition of growth at 20 ppm [2] | inhibition of growth at 20 ppm [3] | inhibition of growth at 20 ppm [4] | pest or weed control at 200 ppm [7]

CC(COC1CCCCC1)(CC(F)(F)F)NC(=O)c1cnc2c(F)cccc2c1 (stereo in doubt) [E.017, N-[(1S)-1-(cyclo-hexoxymethyl)-3,3,3-trifluoro-1-methyl-propyl]-8-fluoro-quinoline-3-carboxamide]
≥ 80%: pest or weed control at 200 ppm [7]

CC(C)CC(C)(COC1CCCCC1)NC(=O)c1cnc2c(F)cccc2c1 (centres unmarked) [E.029, N-[1-(cyclohexoxy-methyl)-1,3-dimethyl-butyl]-8-fluoro-quinoline-3-carboxamide]
≥ 80%: inhibition of growth at 20 ppm (Fusarium culmorum [1]) | pest or weed control at 200 ppm (Fusarium culmorum [5]) | inhibition of growth at 20 ppm [2] | inhibition of growth at 20 ppm [3] | inhibition of growth at 20 ppm [4] | inhibition of growth at 20 ppm [6]

CC(COC1(C)CCCCC1)(CC(F)(F)F)NC(=O)c1cnc2c(F)cccc2c1 (centres unmarked) [E.015, 8-fluoro-N-[3,3,3-trifluoro-1-methyl-1-[(1-methylcyclo-hexoxy)methyl]-propyl]quinoline-3-carboxamide]
≥ 80%: inhibition of growth at 20 ppm (Fusarium culmorum [1]) | inhibition of growth at 20 ppm [2] | inhibition of growth at 20 ppm [3] | inhibition of growth at 20 ppm [4]
